# Assays:
# Experiment in all cases: relative viability (nuclei count vs DMSO), 5 days (fraction); higher = more cells survive
# Palbociclib = compound: CC(=O)c1c(C)c2cnc(Nc3ccc(N4CCNCC4)cn3)nc2n(C2CCCC2)c1=O [Palbociclib]
# Procedure, shortened: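 Viability here means nuclei in treated wells divided by nuclei in vehicle wells, reported as the median across plates. Only plates with control CV below 25% and at least one doubling passed. Lung cancer cell lines in 1536-well plates were exposed to five √10-spaced library-drug doses for 5 days and counted from 4× Hoechst images in MetaXpress.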
# Palbociclib + Lapatinib = compound: CC(=O)c1c(C)c2cnc(Nc3ccc(N4CCNCC4)cn3)nc2n(C2CCCC2)c1=O [Palbociclib] + CS(=O)(=O)CCNCc1ccc(-c2ccc3ncnc(Nc4ccc(OCc5cccc(F)c5)c(Cl)c4)c3c2)o1 [Lapatinib] (partner 2 µM)
# Procedure, shortened: (§1)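 Dosing by pin tool came one day after lung cancer cell lines were seeded in 1536-well plates, using either one drug or a fixed anchor-drug dose plus five library-drug doses (not always all listed) in √10 steps. After 5 days, nuclei were counted on 4× images. Relative viability is treated-well nuclei count divided by vehicle-well nuclei count, and values are medians of duplicate plates.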
# Palbociclib + Pictilisib = compound: CC(=O)c1c(C)c2cnc(Nc3ccc(N4CCNCC4)cn3)nc2n(C2CCCC2)c1=O [Palbociclib] + CS(=O)(=O)N1CCN(Cc2cc3nc(-c4cccc5[nH]ncc45)nc(N4CCOCC4)c3s2)CC1 [Pictilisib] (partner 1 µM)
# Procedure, shortened: as §1
Cell Line,relative viability (Palbociclib; 0.01 µM),relative viability (Palbociclib; 0.03162 µM),relative viability (Palbociclib; 0.1 µM),relative viability (Palbociclib; 0.3162 µM),relative viability (Palbociclib; 1 µM),relative viability (Palbociclib + Lapatinib; first compound 0.01 µM),relative viability (Palbociclib + Lapatinib; first compound 0.03162 µM),relative viability (Palbociclib + Lapatinib; first compound 0.1 µM),relative viability (Palbociclib + Lapatinib; first compound 0.3162 µM),relative viability (Palbociclib + Lapatinib; first compound 1 µM),relative viability (Palbociclib + Pictilisib; first compound 0.01 µM),relative viability (Palbociclib + Pictilisib; first compound 0.03162 µM),relative viability (Palbociclib + Pictilisib; first compound 0.1 µM),relative viability (Palbociclib + Pictilisib; first compound 0.3162 µM),relative viability (Palbociclib + Pictilisib; first compound 1 µM),"relative viability (Palbociclib; 0.5 µM, anchor plate)"
NCI-H596,0.894,0.775,0.9,0.876,1.04,1.28,1.07,0.974,1.2,1.14,0.379,0.422,0.385,0.397,0.387,
NCI-H1975,0.923,0.949,0.924,0.865,0.793,0.959,0.831,0.833,0.922,0.711,0.286,0.271,0.199,0.25,0.186,0.593
EKVX,1.12,0.733,0.766,0.882,0.544,0.184,0.193,0.193,0.178,0.12,0.478,0.363,0.223,0.281,0.249,0.394
NCI-H460,0.974,0.81,0.912,0.864,0.532,0.92,0.813,0.71,0.516,0.207,0.465,0.302,0.268,0.318,0.182,0.199
NCI-H23,0.973,0.417,0.765,0.877,0.593,1,,1.05,0.804,0.589,0.575,,0.362,0.36,0.205,0.538
NCI-H2009,0.991,0.905,0.781,0.693,0.35,0.859,0.391,0.697,0.63,0.369,0.758,0.453,0.462,0.411,0.182,0.237
NCI-H2405,0.996,0.797,0.842,0.889,0.654,1.04,,0.819,0.901,0.761,0.46,,0.294,0.415,0.313,0.52
NCI-H1395,1.01,0.825,0.797,0.858,0.597,0.867,0.987,0.943,0.928,0.688,0.616,0.542,0.507,0.494,0.425,0.647
HOP-62,0.953,,0.87,0.795,0.663,0.77,,0.871,0.825,0.79,0.775,,0.516,0.551,0.358,0.451
NCI-H522,1.15,0.616,0.949,0.915,0.879,,,,,,,,,,,1.02
NCI-H1944,0.971,0.762,0.886,0.885,0.532,0.798,0.487,0.772,0.758,0.402,0.317,0.332,0.334,0.265,0.228,0.345
NCI-H1793,1.02,0.54,0.77,0.682,0.327,0.68,0.619,0.462,0.602,0.355,0.241,0.351,0.285,0.224,0.219,0.325
SK-MES-1,0.931,0.852,0.683,0.648,0.361,0.439,0.449,0.391,0.406,0.344,0.359,0.305,0.238,0.266,0.196,0.327
NCI-H1650,0.928,0.734,0.77,0.726,0.487,0.774,0.258,0.263,0.578,0.351,0.548,0.223,0.383,0.414,0.312,0.359
LCLC-103H,1,0.762,0.858,0.833,0.537,,,,,,0.564,0.536,0.543,0.591,0.436,0.469
LU99A,0.91,0.711,0.924,0.928,0.65,0.936,0.539,0.922,0.853,0.577,0.328,0.287,0.239,0.236,0.225,0.414
201T,1.02,0.863,0.9,0.867,0.571,1.06,0.844,0.928,0.94,0.692,0.68,0.61,0.622,0.525,0.464,0.349
NCI-H1563,0.988,0.896,0.85,0.869,0.853,0.952,0.852,0.955,0.844,0.759,0.668,0.614,0.555,0.618,0.613,
NCI-H2347,1.05,0.905,0.87,0.775,0.684,0.957,0.823,0.71,0.682,0.751,0.538,0.772,0.584,0.47,0.492,0.424
UMC-11,1,0.824,0.709,0.575,0.291,1.03,0.75,0.593,0.432,0.34,0.873,0.671,0.429,0.36,0.219,0.332
NCI-H661,0.968,0.862,0.765,0.611,0.455,0.491,0.437,0.477,0.345,0.333,0.407,0.409,0.379,0.3,0.251,0.415
